The test system of one experiment is BiP gene expression. The experiment is described as follows: Leaf treatment of tobacco plants, Northern blot of BiP transcripts in treated (local) and untreated (systemic) leaves. The format is in vivo, Nicotiana tabacum. The following applies: after 3 and 8 hours; tunicamycin 0.02 mM. The text has this:
We have shown that treatment of tobacco plants with cell wall-degrading enzymes (CDE) leads to the rapid induction of β-1,3-glucanase and other PR genes, both locally and systemically (Vidal et al, 1997). […] We used a commercial preparation of fungal CDEs instead of custom made Erwinia-derived hydrolases to increase reproducibility. […] This induction was observed locally as well systemically with the same timing and intensity. β-1,3-glucanase transcript accumulation is detectable only after 4 hours of incubation and reaches its plateau after 8 hours as described previously (Vidal et al, 1997). Whereas BiP induction is transient, β-1,3-glucanase mRNA levels continue to be high after prolonged incubation times (24-48 hours). […] The signal involved in the systemic response of BiP gene expression must therefore be transported very rapidly from the local leaf to the distal leaves.
Even though BiP induction occurs prior to β-1,3 glucanase induction, we cannot rule out that other, as yet unidentified defence related proteins are induced more rapidly and perhaps before BiP in our experimental system. If this were the case, it would still be possible that the rapid induction of BiP is the result of a feedback mechanism due to ER stress resulting from the increased synthesis of proteins on the rough ER, the unfolded protein response (UPR). […]

For the next experiment, the system named is BiP mRNA. The experiment is described as follows: Treatment of Arabidopsis WT and saiI mutant, Northern blot of BiP. It counts as in vivo, Arabidopsis thaliana. To be noted: Arabidopsis saiI mutant vs wild-type, SA 5 mM. As for the experimental part: WT and saiI mutants of the same ecotype were treated with cell wall-degrading enzymes and incubated for 6 hours. As a control (con), leaves were mock-infected with H2O. Total RNA was extracted and Northern blot analysis was performed for BiP and a hevein-like protein (Hel) which is known to be induced by CDEs of Erwinia carotovora (Vidal et al, in preparation).
WT and saiI mutants of the same ecotype were sprayed with SA (5 mM) and incubated in the light. Total RNA was extracted and probed with the PR1 and BiP gene from Arabidopsis. The induction of PR1 in WT Arabidopsis was detected 3 hours after SA-treatment and continued to increase until 8 hours (FIG. 10). […] As in tobacco plants, BiP mRNA levels increase prior to PR1 transcripts in SA treated Arabidopsis plants (FIG. 10) and diminish after prolonged incubations (data not shown).
Plants of Nicotiana tabacum cultivar Petit Havana (Maliga et al., 1973) were axenically grown in MS medium (Murashige and Skoog, 1962), 2% Sucrose in a temperature controlled room at 25° C. with a 16 h day/[…] regime and a light irradiance of 200 μE.m^−2.s^−1. Arabidopsis thaliana Nössen WT and saiI plants (Shah et al., 1997) were grown under the same conditions.
Protoplasts RNAs were extracted as described by Jones et al., (1985). […]

Consider tunicamycin, for which, in the experiment with BiP gene expression, the “BiP mRNA levels in the treated leaf” value is given as “strong increase”.

Turning to `O=C(O)c1ccccc1O` [SA, Salicylic Acid], the “BiP mRNA levels in saiI mutants during SA-treatment” value with BiP mRNA is reported as “exactly the same induction pattern as in the wild-type plant”.

The record behind these values is patent publication US20060117411A1, “Enhancing plant pathogen resistance via increasing BiP levels” (priority 1998, published 2006).
